Reference: paper PMC6953423 (Journal of medicinal chemistry, 2019)

Key:
male Sprague-Dawley rats = test: Drug-induced reinstatement of extinguished cocaine-seeking behavior; assay type: in vivo, rat; settings: 10 mg/kg i.p. pretreatment, cocaine prime 10 mg/kg i.p., p > 0.05
P-gp (MDR1) = test: in vitro; settings: dog, MDCK-MDR1, pH 7.4
CB1 [1] = target: T1, CB1 (Homo sapiens, UniProt P21554); settings: absence of CP55,940; up to 10 μM
rats = settings: cited from earlier work; for seeking drugs of abuse (cocaine or methamphetamine) after a period of extinction: rats pretreated
Kinetic solubility = assay type: physicochemical; settings: phosphate buffer, mean ± SD
[2] = cited from earlier work
CB1 [3] = target: T1, CB1; test: CB1 calcium mobilization assay; assay type: cell-based; settings: IC50 relative to 2

T1 sequence (P21554 whole entry): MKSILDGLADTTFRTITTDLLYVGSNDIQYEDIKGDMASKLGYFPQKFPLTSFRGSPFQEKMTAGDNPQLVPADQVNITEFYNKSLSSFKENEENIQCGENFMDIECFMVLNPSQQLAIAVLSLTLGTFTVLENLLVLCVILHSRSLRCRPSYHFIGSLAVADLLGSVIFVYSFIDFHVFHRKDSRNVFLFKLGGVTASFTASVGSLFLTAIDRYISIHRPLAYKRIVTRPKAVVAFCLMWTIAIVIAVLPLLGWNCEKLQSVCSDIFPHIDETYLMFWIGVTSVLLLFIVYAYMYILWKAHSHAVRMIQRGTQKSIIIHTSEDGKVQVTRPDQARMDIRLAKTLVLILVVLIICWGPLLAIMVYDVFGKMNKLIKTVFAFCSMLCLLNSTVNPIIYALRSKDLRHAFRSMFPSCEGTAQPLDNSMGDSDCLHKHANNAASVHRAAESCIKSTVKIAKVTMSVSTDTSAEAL

| SMILES | seeking drugs of abuse (cocaine or methamphetamine) after a period of extinction (rats) | fold less potent than 2 in calcium assay (CB1 [3]) [fold] | also measured |
| --- | --- | --- | --- |
| O=C(Nc1ccc(Cl)cc1)Nc1ccc(-c2ccccc2)s1 [Compound 11, 1‐(4‐Chlorophenyl)‐3‐(5‐phenylthiophen‐2‐yl)urea] | – | – | effect on drug-induced cocaine-seeking behavior (male Sprague-Dawley rats): failed to significantly reduce; efflux ratio at 10 μM (P-gp (MDR1)): < 2.5; inverse agonism (in words) (CB1 [1]): very little inverse agonism |
| O=C(Nc1ccc(Cl)cc1)Nc1cccc(-c2ccc(F)cc2)c1 [Compound 4] | less likely to seek drugs of abuse | – | prime-induced reinstatement of cocaine seeking (rats): attenuated prime-induced restatement of cocaine seeking |
| CCc1c(C(=O)NCCc2ccc(N3CCCCC3)cc2)[nH]c2ccc(Cl)cc12 [Compound 1] | less likely to seek drugs of abuse | – | – |
| O=C(Nc1ccc(Cl)cc1)Nc1cccc(-c2cccc(N3CCCC3)n2)c1 [Compound 2, 1-(4-chlorophenyl)-3-{3-[6-(pyrrolidin-1-yl)pyridin-2-yl]phenyl}urea] | less likely to seek drugs of abuse | – | solubility at 2 h (Kinetic solubility): < 1 µM |
| N#Cc1ccc(NC(=O)Nc2cccc(-c3cccc(N4CCCC4)n3)c2)cc1 [Compound 3] | – | – | effect on THC in drug discrimination [2]: reduced THC’s potency |
| O=C(Nc1ccc(Cl)cc1)Nc1ccnc(-c2ccccc2)c1 [Compound 10, 1‐(4‐Chlorophenyl)‐3‐(2‐phenylpyridin‐4‐yl)urea] | – | 7.1 | – |
| O=C(Nc1ccc(Cl)cc1)Nc1cc(-c2ccccc2)ccn1 [Compound 7, 1‐(4‐Chlorophenyl)‐3‐(4‐phenylpyridin‐2‐yl)urea] | – | 4.7 | – |
| O=C(Nc1ccc(Cl)cc1)Nc1cncc(-c2ccccc2)c1 [Compound 9, 1‐(4‐Chlorophenyl)‐3‐(5‐phenylpyridin‐3‐yl)urea] | – | 8.8 | – |
